EC50 and Emax data for two compounds are collected here from article doi:10.1101/2025.11.20.689572v1 (biorxiv, 2025).

Structures are written as SMILES. pEC50: −log10 of the molar value.

Assay in all cases: cell-based
The target of one assay is T1, HTR2C (Homo sapiens, UniProt P28335).
T1 sequence (P28335 1-458): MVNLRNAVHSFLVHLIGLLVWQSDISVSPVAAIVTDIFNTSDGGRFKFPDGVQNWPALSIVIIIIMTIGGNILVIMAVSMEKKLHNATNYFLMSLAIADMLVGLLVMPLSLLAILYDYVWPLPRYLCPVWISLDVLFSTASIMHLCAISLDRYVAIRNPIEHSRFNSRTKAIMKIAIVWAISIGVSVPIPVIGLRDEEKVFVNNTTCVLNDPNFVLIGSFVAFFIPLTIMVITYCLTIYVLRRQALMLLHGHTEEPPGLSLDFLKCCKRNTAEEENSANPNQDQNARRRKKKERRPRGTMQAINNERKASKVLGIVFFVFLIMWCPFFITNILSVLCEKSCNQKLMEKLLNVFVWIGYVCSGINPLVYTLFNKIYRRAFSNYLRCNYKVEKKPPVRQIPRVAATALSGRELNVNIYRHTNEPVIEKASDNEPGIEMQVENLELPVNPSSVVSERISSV
Also on record: species or system HEK293; Fluo-4 Direct calcium mobilization on FLIPR-Tetra. As to conditions: Assay=Calcium; agonist mode.

The target in the next assay is HTR2A (Homo sapiens, UniProt P28223). Also on record: TRUPATH BRET2 G-protein dissociation; antagonist mode against agonist EC80. The settings on record: HEK293, read-out: N-Desmethyl Xanomeline, Assay=Gq; agonist mode, % of control agonist.
The next assay deals with SSTR4 (Homo sapiens, UniProt P31391). Details: PRESTO-Tango beta-arrestin2 recruitment, luciferase luminescence, concentration-response. The settings on record: HTLA, read-out: N-Desmethyl Xanomeline; Assay=Tango; agonist mode, % of control agonist. On the procedure:
(§1) Off-target agonism across the human GPCRome was profiled using PRESTO-Tango, following established protocols with minor adaptations [10]–[12]. […] After ~6 h recovery, cells were transfected with 20 ng plasmid DNA per well and incubated overnight. The next day, 10 µL of test compound (prepared in DMEM + 1% dFBS) was added, and plates were incubated overnight. Media and compounds were removed, and 20 µL per well of Bright-Glo luciferase reagent diluted in assay buffer (Hank’s Balanced Salt Solution (HBSS), 20 mM HEPES, pH 7.4) was added. After 20 min at room temperature (dark), luminescence was recorded. Each plate included the dopamine D2 receptor (DRD2) stimulated with 100 nM quinpirole as a positive control. For the GPCRome screen, each receptor was tested in quadruplicate at 0 and 10 µM compound (final). Responses were expressed as fold change relative to the basal (0 µM) condition. Follow-up concentration–response assays were performed under identical conditions except that serial dilutions of compounds (maximum ~30 µM, final) were added to generate full concentration–response curves.

The target in a further assay is T2, DRD4 (Homo sapiens, UniProt P21917).
T2 sequence (P21917 1-419): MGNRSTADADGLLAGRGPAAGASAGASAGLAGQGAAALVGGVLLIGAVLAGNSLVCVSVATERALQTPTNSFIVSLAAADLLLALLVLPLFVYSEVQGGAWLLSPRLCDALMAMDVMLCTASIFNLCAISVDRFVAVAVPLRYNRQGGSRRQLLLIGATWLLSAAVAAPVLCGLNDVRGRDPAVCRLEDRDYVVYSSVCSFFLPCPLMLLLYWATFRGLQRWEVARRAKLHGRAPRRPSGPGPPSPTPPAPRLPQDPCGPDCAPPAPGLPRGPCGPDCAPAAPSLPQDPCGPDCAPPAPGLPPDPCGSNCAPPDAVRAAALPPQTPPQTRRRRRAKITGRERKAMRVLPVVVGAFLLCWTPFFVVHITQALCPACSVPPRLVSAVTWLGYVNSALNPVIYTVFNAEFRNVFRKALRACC
Also on record: PRESTO-Tango beta-arrestin2 recruitment, luciferase luminescence, concentration-response. The settings on record: HTLA, read-out: Xanomeline; Assay=Tango; agonist mode, % of control agonist. On the procedure:
as §1

Sequence of HTR2A (P28223 whole entry): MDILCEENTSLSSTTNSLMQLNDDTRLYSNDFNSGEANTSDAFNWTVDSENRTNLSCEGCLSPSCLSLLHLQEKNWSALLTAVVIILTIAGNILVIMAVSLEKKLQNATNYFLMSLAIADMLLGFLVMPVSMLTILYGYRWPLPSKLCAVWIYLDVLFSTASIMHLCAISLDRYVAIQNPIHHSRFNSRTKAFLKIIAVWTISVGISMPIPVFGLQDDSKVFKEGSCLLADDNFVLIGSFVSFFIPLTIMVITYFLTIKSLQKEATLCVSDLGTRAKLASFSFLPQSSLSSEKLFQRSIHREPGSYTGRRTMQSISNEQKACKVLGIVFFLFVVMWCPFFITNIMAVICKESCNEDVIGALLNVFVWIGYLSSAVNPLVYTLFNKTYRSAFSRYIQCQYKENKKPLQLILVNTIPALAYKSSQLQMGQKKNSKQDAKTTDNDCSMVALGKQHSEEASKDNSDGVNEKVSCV
Sequence of SSTR4 (P31391 whole entry): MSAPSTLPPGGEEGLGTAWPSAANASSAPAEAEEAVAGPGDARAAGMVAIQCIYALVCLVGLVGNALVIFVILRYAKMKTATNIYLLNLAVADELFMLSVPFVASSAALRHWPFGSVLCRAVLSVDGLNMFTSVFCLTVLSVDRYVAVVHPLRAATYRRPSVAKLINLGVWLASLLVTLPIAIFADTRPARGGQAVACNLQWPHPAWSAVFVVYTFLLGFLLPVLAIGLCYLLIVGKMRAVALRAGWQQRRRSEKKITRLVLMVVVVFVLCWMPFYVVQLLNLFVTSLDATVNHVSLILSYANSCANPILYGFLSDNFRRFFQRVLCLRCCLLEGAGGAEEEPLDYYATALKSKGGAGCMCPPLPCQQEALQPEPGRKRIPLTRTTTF

`CCCCCCOc1nsnc1C1=CCCNC1` [N-desmethylxanomeline]: the pEC50 at HTR2C was 5.96. Moreover, the Emax at HTR2A is 98.1%; on SSTR4, 2.88%.

As to `CCCCCCOc1nsnc1C1=CCCN(C)C1` [Xanomeline], the Emax at DRD4 amounted to 11.4%.

What is called pEC50 is −log10 of the EC50, conventionally taken in molar units.
